Laboratory results published in patent EP1127890A1, “Steroid derivatives with an additional ring annulated to ring A and use of these derivatives for the preparation of meiosis regulating medicaments” (SCHERING AKTIENGESELLSCHAFT, priority 2000, dated 2001).
Several values for one entry are separate records, joined by “and”; a condition that tells them apart may be missing. Equal values may be shown once.

Key:
naked mouse oocytes [1] = assay: Test of meiosis-inhibiting substances in the oocyte test (co-culture with FF-MAS in Hx-medium); assay type: cell-based; settings: for Oocytes [n] GV: number of oocytes with germinal vesicle; for Oocytes [n] GVB: number of oocytes with germinal vesicle breakdown; for Oocytes [n] PB: number of oocytes with polar bodies
Description: Oocytes were obtained from immature female mice (C57BI/6J × DBA/2J F1-hybrids, Bomholtgaard, Denmark) weighing 13 - 16 grams, that were kept under controlled lighting and temperature. The mice received an intra-peritoneal injection of 0.2 ml gonadotropins (Gonal F, Serono, Solna, Sweden , containing 20 IU FSH, alternatively, Puregon, Organon, Swords, Ireland containing 20 IU FSH) and 48 hours later the animals were killed by cervical dislocation. The ovaries were dissected out and the oocytes were isolated in Hx-medium (see below) under a stereo microscope by manual rupture of the follicles using a pair of 27 gauge needles. Spherical, naked oocytes (NO) displaying an intact germinal vesicle (GV) were placed in α-minimum essential medium (α-MEM without ribonucleosides, Gibco BRL, Cat.No. 22561) supplemented with 3 mM hypoxanthine (Sigma Cat. No. H-9377), 8 mg/ml Human Serum Albumin (HSA, State Serum Institute, Denmark), 0,23 mM pyrubate (Sigma, Cat. No. S-8636), 2 mM glutamine (Flow Cat. No. 16-801), 100 IU/ml penicillin and 100 µg/ml streptomycin (Flow, Cat No. 16-700). This medium was designated Hx-medium. The oocytes were rinsed three times in Hx-medium and cultured in 4-well multidishes (Nuncion, Denmark) in which each well contained 0.4 ml of Hx-medium and 30 - 40 oocytes. One control (i.e. 30 - 40 oocytes cultured in Hx-medium with no addition of test compound) was always run simultaneously with the test cultures, which were made with different concentrations of the compounds to be tested. The cultures were performed at 37 °C and 100 % humidity with 5 % CO2 in air. The culture time was 22 - 24 hours. Germinal vesicle (GV) oocytes were obtained from immature FSH treated female mice using the same methods as described in Example 1 (see above). Naked oocytes (NO) were rinsed three times in Hx-medium. […] NO were cultured in Hx-medium supplemented with 5 µM FF-MAS in co-culture with the test compounds in different concentrations in 4-well multidishes (Nunclon, Denmark) in which each well contained 0.4 ml of Hx-medium and 30 - 40 oocytes. One positive control (i.e., 30 - 40 oocytes cultured in Hx-medium containing FF-MAS with no addition of test compound) was always run simultaneously with the test cultures, which were supplemented with different concentrations of the compounds to be tested. In addition, one negative control ( 30 - 40 oocytes cultured in Hx-medium alone) was run simultaneously with the positive control. By the end of the culture period, the number of oocytes with germinal vesicle (GV) or germinal vesicle breakdown (GVB) and those with polar body (PB) was counted using a stereo microscope or an inverted microscope with differential interference contrast equipment. The percentage of oocytes with GVB + PB per total number of oocytes were calculated in the test cultures and in the control (positive and negative) culture groups. The relative inhibition of the test compound was calculated by the following formula: inhibition test compound (%) = 100% - [(GVB+PB (test compound) - GVB+PB (negative control)) x 100 / GVB+PB(positive control) - GVB+PB (negative control)] % [formula] Oocytes arrested in meiosis are characterised by an intact nucleus with a prominent nucleolus, known as germinal vesicle (GV). Upon reinitiation of meiosis the nucleolus and the nuclear envelope disappear and this is characterised by a breakdown of the GV, which than is called germinal vesicle breakdown (GVB). Some hours later the oocyte complete a reductional division and elicit the first so called polar body (PB).

naked mouse oocytes [2] = assay: Testing of meiosis-activating substances in the oocyte test (Hx-medium); assay type: cell-based; settings: 10 µM in Hx-medium
Description: Oocytes were obtained from immature female mice (C57BI/6J × DBA/2J F1-hybrids, Bomholtgaard, Denmark) weighing 13 - 16 grams, that were kept under controlled lighting and temperature. The mice received an intra-peritoneal injection of 0.2 ml gonadotropins (Gonal F, Serono, Solna, Sweden , containing 20 IU FSH, alternatively, Puregon, Organon, Swords, Ireland containing 20 IU FSH) and 48 hours later the animals were killed by cervical dislocation.
The ovaries were dissected out and the oocytes were isolated in Hx-medium (see below) under a stereo microscope by manual rupture of the follicles using a pair of 27 gauge needles. Spherical, naked oocytes (NO) displaying an intact germinal vesicle (GV) were placed in α-minimum essential medium (α-MEM without ribonucleosides, Gibco BRL, Cat.No. 22561) supplemented with 3 mM hypoxanthine (Sigma Cat. No. H-9377), 8 mg/ml Human Serum Albumin (HSA, State Serum Institute, Denmark), 0,23 mM pyrubate (Sigma, Cat. No. S-8636), 2 mM glutamine (Flow Cat. No. 16-801), 100 IU/ml penicillin and 100 µg/ml streptomycin (Flow, Cat No. 16-700). This medium was designated Hx-medium. The oocytes were rinsed three times in Hx-medium and cultured in 4-well multidishes (Nuncion, Denmark) in which each well contained 0.4 ml of Hx-medium and 30 - 40 oocytes. One control (i.e. 30 - 40 oocytes cultured in Hx-medium with no addition of test compound) was always run simultaneously with the test cultures, which were made with different concentrations of the compounds to be tested. The cultures were performed at 37 °C and 100 % humidity with 5 % CO2 in air. The culture time was 22 - 24 hours.
By the end of the culture period, the number of oocytes with germinal vesicle (GV) or germinal vesicle breakdown (GVB) and those with polar body (PB) was counted using a stereo microscope or an inverted microscope with differential interference contrast equipment. The percentage of oocytes with GVB per total number of oocytes and the percentage of oocytes with PB per total number of oocytes was calculated in the test cultures and compared to the control culture.
Oocytes arrested in meiosis are characterised by an intact nucleus with a prominent nucleolus, known as germinal vesicle (GV). Upon reinitiation of meiosis the nucleolus and the nuclear envelope disappear and this is characterised by a breakdown of the GV, which than is called germinal vesicle breakdown (GVB). Some hours later the oocyte complete a reductional division and elicit the first so called polar body (PB).

[3] = 5µM FF-MAS + 10 µM test compound in Hx-medium
[4] = 5µM FF-MAS + 10 µM test compound in Hx-medium, relative inhibition of meiosis
[5] = 5µM FF-MAS alone in Hx-medium (positive control)

Compound | Oocytes [n] GV (naked mouse oocytes [1]; [3]) [n] | Oocytes [n] GVB (naked mouse oocytes [1]; [3]) [n] | Oocytes [n] PB (naked mouse oocytes [1]; [3]) [n] | Inhibition [%] (naked mouse oocytes [1]; [4]) | Oocytes [n] GV (naked mouse oocytes [1]; [5]) | Oocytes [n] GVB (naked mouse oocytes [1]; [5]) | inhibition at 5 µM (naked mouse oocytes [1]; Mus musculus, Oocyte, 5µM FF-MAS alone in Hx-medium (positive control), relative inhibition of meiosis) [%] | Oocytes [n] GV (naked mouse oocytes [2]) [n] | Oocytes [n] GVB (naked mouse oocytes [2]) [n] | Oocytes [n] PB (naked mouse oocytes [2]) [n] | activation at 10 µM (naked mouse oocytes [2]; Mus musculus, Oocyte, read-out: Activation [%] GVB+PB) [%]
CC(C)=CCO[C@H]1CC[C@H]2[C@@H]3CC[C@]45C[C@H](CC[C@]4(C)[C@H]3CC[C@]12C)OC5=O [Example 12, 17β-(prenyloxy)-5β-androstane-5,3β-carbolactone] | 24 | 9 | 1 | 84 |  |  |  |  |  |  | 
CC(C)CCC[C@@H](C)[C@H]1CC[C@H]2C3=C(CC[C@]12C)[C@@]1(C)CC[C@@]2(OCCO)C[C@]1(CC3)[C@H](C)O2 [Example 5, 2-[(4aα-methyl-4a-homo-3α,5-methano-4-oxa-5α-cholest-8-en-3β-yl)oxy]ethanol] | 30 | 0 | 0 | 100 |  |  |  |  |  |  | 
CC(C)=CCC[C@@H](C)[C@H]1CC=C2C3=C(CC[C@@]21C)[C@@]1(C)CC[C@H](O)C(C)(C)[C@@H]1CC3 [FF-MAS, 4,4-Dimethylcholest-B, 14,24-trien-3β-ol] |  |  |  |  | 4 n and 8 n | 16 n and 25 n | 0 | 6 | 31 | 2 | 85
